{"source": "patent US11134889B2", "about": "“Treatment of a disease of the gastrointestinal tract with a SMAD7 inhibitor” (Progenity, Inc., priority 2016, dated 2021)", "test": "Tacrolimus tissue pharmacokinetics, oral vs intra-cecal ingestible device delivery", "assay_type": "in vivo, Yorkshire-Cross farm swine", "conditions": "swine; intra-cecal as compared to oral administration, 12 hours post-dose", "protocol": "The primary objective of this study was to compare the tissue, plasma, rectal sample, and GI content pharmacokinetics of tacrolimus through oral versus intra-cecal ingestible device delivery in normal Yorkshire-Cross farm swine.\nNo further randomization procedure was employed.\nAnimals in Group 1 received an ingestible device containing 0.8 mL of vehicle solution (80% alcohol, 20% HCO-60). Animals in Group 2 received orally […] liquid formulation of tacrolimus at 4 mg/0.8 mL per animal (Prograf: 5 mg/mL). Animals in Group 3 received intra-cecally an ingestible device containing tacrolimus at 1 mg in 0.8 mL per ingestible device. […]\nApproximately 200˜400 mg of rectal content were collected, if available, with a fecal swab (Copan Diagnostics Nylon Flocked Dry Swabs, 502CS01). The fecal swab was pre-weighed and weighed after collection in the collection tube (Sterile Tube and Cap No Media, PFPM913S), and the sample weight was recorded. […]\nFor tissue necropsy, small intestine fluid and cecal fluid were collected separately from all the animals into two separate square plastic bottles, and stored at −20° C. The length and diameter of the cecum and the colon was measured from one animal in each group and recorded for reference. […] All samples were weighed, and the tissue sample weights were recorded. […]", "data": [{"smiles": "C=CC[C@@H]1/C=C(\\C)C[C@H](C)C[C@H](OC)[C@H]2O[C@@](O)(C(=O)C(=O)N3CCCC[C@H]3C(=O)O[C@H](/C(C)=C/[C@@H]3CC[C@@H](O)[C@H](OC)C3)[C@H](C)[C@@H](O)CC1=O)[C@H](C)C[C@@H]2OC", "note": "[tacrolimus]", "values": [{"measurement": "mean concentration in the cecum tissue and the proximate colon tissue (FIG. 76)", "value": "higher"}]}]}
